According to PMC10322960 (European Journal of Drug Metabolism and Pharmacokinetics, 2023):

Experiments:
[1] = biological target: T1, OATP1B1 (Homo sapiens, UniProt Q9Y6L6); test: OATP1B1 uptake inhibition assay; assay type: in vitro ADME
T1 sequence (Q9Y6L6 1-691): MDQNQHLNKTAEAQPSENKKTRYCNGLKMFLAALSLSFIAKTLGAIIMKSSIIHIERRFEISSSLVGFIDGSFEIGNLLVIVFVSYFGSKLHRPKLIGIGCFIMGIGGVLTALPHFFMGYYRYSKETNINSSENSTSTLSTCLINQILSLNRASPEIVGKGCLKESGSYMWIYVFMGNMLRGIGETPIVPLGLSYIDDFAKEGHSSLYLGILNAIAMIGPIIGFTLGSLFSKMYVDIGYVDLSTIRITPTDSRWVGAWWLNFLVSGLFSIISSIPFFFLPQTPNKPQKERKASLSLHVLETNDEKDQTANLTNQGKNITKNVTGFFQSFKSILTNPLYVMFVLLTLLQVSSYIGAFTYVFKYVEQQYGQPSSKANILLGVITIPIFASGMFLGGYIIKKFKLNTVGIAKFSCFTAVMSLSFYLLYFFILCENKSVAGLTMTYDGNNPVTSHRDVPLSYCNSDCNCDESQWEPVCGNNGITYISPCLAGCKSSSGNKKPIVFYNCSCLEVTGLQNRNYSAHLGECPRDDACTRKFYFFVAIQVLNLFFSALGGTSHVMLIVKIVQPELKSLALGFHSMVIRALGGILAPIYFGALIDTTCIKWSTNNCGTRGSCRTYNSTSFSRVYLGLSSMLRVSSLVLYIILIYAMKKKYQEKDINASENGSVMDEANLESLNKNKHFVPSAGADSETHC

[2] = biological target: BSEP (Homo sapiens, UniProt O95342); test: BSEP vesicular transport inhibition assay; assay type: in vitro ADME
Chain of BSEP (O95342 whole entry): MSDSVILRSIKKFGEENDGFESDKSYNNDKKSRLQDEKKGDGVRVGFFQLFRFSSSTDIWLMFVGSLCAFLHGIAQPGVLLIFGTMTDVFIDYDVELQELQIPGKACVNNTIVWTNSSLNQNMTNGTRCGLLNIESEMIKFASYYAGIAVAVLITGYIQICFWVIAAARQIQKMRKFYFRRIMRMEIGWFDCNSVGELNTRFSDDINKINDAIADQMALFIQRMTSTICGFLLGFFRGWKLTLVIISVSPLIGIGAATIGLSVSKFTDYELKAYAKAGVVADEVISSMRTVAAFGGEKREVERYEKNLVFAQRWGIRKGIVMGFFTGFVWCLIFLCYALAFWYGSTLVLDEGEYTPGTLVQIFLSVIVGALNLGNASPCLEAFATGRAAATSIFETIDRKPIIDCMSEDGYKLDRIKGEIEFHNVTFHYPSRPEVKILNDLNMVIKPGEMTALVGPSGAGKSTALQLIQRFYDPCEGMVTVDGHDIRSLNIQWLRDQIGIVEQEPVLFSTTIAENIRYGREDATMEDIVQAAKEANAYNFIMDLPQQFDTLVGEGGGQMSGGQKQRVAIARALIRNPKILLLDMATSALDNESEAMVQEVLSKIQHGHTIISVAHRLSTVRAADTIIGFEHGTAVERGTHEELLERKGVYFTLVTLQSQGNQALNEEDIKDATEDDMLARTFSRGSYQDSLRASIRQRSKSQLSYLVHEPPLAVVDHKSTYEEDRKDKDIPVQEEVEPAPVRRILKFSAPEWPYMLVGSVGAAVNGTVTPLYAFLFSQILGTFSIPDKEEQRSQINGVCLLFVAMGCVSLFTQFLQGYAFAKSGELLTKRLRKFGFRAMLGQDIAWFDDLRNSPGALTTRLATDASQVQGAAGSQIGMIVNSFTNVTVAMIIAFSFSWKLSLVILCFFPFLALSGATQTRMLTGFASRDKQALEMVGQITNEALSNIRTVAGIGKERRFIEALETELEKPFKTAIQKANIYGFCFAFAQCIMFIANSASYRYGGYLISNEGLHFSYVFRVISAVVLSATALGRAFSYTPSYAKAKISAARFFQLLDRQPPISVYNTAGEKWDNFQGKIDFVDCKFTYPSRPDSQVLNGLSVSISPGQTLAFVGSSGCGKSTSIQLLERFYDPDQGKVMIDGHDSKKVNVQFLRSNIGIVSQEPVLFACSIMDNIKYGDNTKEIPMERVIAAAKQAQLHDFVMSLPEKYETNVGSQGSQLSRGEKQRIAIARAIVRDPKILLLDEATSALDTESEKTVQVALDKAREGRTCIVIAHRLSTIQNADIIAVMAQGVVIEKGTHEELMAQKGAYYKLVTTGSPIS

[3] = test system: CYP1A2; details: ocedurenone at 0.1, 1, or 10 μM, 72 h; inducer criterion 40%
[4] = biological target: OCT1 (Homo sapiens, UniProt O15245); test: OCT1 uptake substrate assay; assay type: in vitro ADME
Chain of OCT1 (O15245 whole entry): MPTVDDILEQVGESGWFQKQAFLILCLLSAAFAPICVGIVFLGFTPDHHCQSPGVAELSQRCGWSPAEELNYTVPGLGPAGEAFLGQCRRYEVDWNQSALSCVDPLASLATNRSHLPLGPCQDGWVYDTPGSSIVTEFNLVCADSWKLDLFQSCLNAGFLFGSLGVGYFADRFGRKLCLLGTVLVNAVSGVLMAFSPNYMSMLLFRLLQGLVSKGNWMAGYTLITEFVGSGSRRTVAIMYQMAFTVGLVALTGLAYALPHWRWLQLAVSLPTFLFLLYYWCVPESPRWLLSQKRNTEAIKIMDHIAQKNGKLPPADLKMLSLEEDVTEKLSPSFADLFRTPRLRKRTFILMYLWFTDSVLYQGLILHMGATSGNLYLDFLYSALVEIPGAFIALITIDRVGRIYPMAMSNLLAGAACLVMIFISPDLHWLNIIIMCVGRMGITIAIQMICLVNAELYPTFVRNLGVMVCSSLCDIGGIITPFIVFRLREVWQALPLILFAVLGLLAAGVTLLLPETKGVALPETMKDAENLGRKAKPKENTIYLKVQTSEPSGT

[5] = biological target: CYP3A4 (Homo sapiens, UniProt P08684); assay type: in vitro ADME; details: 3 µm ocedurenone, NADPH, 60 min
Chain of CYP3A4 (P08684 whole entry): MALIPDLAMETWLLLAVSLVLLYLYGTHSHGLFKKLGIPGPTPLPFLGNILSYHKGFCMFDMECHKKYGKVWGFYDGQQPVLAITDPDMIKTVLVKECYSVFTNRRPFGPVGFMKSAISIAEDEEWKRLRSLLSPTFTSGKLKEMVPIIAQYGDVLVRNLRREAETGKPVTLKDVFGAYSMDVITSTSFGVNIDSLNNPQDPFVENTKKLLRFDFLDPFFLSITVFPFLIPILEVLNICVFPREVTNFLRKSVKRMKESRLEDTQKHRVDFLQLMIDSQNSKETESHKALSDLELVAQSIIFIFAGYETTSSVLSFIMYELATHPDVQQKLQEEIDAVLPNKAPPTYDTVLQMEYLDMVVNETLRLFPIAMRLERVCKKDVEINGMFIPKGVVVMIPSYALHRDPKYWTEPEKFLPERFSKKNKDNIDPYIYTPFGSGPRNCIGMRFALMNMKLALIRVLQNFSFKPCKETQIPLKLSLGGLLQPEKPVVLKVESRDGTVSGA

[6] = biological target: MATE2-K (Homo sapiens, UniProt Q86VL8); test: MATE2-K uptake inhibition assay; assay type: in vitro ADME; details: at 40 µM
Chain of MATE2-K (Q86VL8 1-566 isoform Q86VL8-3): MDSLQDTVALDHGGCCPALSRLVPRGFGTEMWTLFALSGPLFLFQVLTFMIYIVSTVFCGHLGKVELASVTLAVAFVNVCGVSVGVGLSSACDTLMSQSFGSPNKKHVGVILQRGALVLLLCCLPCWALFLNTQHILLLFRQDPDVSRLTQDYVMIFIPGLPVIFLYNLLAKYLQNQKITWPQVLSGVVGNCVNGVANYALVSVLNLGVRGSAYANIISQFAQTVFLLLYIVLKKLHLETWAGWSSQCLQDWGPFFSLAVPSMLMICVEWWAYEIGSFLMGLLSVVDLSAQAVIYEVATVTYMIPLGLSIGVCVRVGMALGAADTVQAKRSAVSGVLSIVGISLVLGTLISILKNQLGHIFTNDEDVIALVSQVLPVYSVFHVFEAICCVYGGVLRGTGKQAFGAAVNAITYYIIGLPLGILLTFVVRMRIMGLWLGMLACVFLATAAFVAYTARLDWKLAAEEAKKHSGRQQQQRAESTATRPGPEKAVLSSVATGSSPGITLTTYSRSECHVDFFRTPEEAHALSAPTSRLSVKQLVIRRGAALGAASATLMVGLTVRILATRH

[7] = 0.5 to 30 mg administered orally; cited from earlier work
[8] = biological target: T2, BCRP (Homo sapiens, UniProt Q9UNQ0); test: BCRP vesicular transport inhibition assay; assay type: in vitro ADME
T2 sequence (Q9UNQ0 1-655): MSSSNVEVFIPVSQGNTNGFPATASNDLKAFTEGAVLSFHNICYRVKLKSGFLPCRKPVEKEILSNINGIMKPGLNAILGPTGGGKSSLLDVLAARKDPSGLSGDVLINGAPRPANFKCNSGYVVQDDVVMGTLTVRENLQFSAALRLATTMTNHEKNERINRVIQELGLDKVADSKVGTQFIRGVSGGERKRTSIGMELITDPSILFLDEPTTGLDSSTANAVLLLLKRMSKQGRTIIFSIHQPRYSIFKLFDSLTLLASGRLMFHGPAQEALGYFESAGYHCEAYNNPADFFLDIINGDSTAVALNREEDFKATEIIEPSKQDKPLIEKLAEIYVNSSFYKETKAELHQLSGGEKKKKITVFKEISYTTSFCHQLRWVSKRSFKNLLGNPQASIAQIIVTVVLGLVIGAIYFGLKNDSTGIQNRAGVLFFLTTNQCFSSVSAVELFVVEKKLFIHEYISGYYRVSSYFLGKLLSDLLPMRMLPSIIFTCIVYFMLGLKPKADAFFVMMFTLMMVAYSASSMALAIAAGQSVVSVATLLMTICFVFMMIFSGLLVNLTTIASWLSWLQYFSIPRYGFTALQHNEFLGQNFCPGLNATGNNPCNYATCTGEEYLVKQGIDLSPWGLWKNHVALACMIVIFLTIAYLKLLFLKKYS

[9] = biological target: T1, OATP1B1; test: OATP1B1 uptake substrate assay; assay type: in vitro ADME
[10] = biological target: T3, MATE1 (Homo sapiens, UniProt Q96FL8); test: MATE1 uptake substrate assay; assay type: in vitro ADME
T3 sequence (Q96FL8 1-570): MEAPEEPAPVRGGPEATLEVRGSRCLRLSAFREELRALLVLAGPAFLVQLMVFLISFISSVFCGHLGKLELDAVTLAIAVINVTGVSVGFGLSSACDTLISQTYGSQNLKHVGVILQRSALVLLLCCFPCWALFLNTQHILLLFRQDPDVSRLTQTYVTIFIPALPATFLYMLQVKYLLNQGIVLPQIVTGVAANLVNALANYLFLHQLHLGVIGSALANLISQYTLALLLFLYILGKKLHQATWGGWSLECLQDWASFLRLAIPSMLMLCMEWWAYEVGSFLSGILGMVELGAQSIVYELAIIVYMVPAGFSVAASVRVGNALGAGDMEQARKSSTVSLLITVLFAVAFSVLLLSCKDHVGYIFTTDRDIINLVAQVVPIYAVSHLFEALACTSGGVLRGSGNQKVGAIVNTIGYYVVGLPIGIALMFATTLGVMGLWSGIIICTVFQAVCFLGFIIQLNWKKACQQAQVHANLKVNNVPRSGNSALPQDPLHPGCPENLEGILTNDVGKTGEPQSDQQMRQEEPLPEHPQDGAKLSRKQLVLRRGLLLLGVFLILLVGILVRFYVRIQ

[11] = biological target: CYP2D6 (Homo sapiens, UniProt P10635); test: In vitro P450 inhibition, recombinant CYP2D6; assay type: in vitro ADME
Chain of CYP2D6 (P10635 whole entry): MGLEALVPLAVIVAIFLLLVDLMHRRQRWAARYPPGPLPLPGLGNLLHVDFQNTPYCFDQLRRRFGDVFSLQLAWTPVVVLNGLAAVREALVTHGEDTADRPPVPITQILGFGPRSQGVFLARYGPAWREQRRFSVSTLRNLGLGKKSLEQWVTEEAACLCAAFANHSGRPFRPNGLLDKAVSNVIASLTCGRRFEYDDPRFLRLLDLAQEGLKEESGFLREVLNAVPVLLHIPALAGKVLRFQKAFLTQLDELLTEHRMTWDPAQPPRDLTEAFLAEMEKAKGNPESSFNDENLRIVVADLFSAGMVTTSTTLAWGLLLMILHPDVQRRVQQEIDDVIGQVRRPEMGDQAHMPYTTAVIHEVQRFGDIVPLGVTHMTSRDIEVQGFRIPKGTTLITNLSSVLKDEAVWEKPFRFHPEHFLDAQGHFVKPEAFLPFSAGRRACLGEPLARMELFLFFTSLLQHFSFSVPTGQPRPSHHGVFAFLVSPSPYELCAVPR

[12] = biological target: CYP2C9 (Homo sapiens, UniProt P11712); test: In vitro P450 inhibition, recombinant CYP2C9; assay type: in vitro ADME
Chain of CYP2C9 (P11712 whole entry): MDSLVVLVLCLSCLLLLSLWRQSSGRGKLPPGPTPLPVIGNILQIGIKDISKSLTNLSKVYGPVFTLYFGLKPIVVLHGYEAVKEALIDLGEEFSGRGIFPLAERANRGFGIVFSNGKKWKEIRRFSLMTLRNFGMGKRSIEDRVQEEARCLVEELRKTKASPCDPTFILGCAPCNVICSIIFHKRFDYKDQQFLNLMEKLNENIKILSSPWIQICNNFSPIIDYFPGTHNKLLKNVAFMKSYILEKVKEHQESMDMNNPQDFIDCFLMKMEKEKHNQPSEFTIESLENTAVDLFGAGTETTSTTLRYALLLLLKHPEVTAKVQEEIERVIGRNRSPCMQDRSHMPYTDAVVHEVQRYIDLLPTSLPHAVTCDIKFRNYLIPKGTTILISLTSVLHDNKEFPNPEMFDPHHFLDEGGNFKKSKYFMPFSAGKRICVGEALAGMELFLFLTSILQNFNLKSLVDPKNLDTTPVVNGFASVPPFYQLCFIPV

[13] = first vesicular transport run, 40 µM
[14] = transporter-expressing vs control cells, 0.04–40 µm

N#Cc1ccc(N2N=C3c4ccc(C(=O)N5CCC(O)CC5)nc4CC[C@@H]3[C@@H]2C2CCCC2)cc1Cl [Ocedurenone, ocedurenone]
maximum inhibition of OATP1B1-mediated probe substrate accumulation ([1]; at 40 µM): 72% | IC50 ([1]; read-out: Inhibition results (IC50), OATP1B1 UPT, uptake assay): 21.9 µM | inhibition of BSEP at 40 µM [2, 13]: 79% | maximum inhibition of BSEP-mediated transport ([2]; repeat with 7 concentrations): 71% | percent CYP1A2 induction (of positive control) [3]: lower than 40% | Substrate, OCT1 UPT [4]: not likely to be a substrate | Maximum fold accumulation, OCT1 UPT [4, 14]: 1.1 | metabolism in recombinant CYP3A4 incubation [5]: Most extensive metabolism | maximum inhibition of MATE2-K-mediated probe substrate accumulation [6]: 79% | safety and tolerability, single ascending dose [7]: safe and well-tolerated | inhibition of BCRP at 40 µM [8, 13]: 98% | maximum inhibition of BCRP-mediated transport ([8]; repeat with 7 concentrations, at 40 µm): 98% | Substrate, OATP1B1 UPT [9]: not likely to be a substrate | Maximum fold accumulation, OATP1B1 UPT [9, 14]: 1.0 | Substrate, MATE1 UPT [10]: not likely to be a substrate | Maximum fold accumulation, MATE1 UPT [10, 14]: 1.0 | percent remaining activity of CYP2D6 ([11]; ocedurenone at 200 μM): 87.8% | IC50 ([11]; read-out: IC50 CYP2D6, recombinant CYP): > 200 µM | inhibition category CYP2D6 ([11]; recombinant enzyme): little or no inhibition | percent remaining activity of CYP2C9 ([12]; ocedurenone at 200 μM): 70.2% | IC50 ([12]; read-out: IC50 CYP2C9, recombinant CYP): > 200 µM | inhibition category CYP2C9 ([12]; recombinant enzyme): little or no inhibition
